Read-outs that look alike come from different tables or passages of the source.
What was measured:
[1] = system: A-431; test: Cell proliferation GI50, A-431 cells (Table 6); format: cell-based
[2] = target: T1, EGFR (d746-750 C797S) (Homo sapiens, UniProt P00533, C797S/DEL746-750); test: Inhibition of EGFR (d746-750 C797S) biochemical enzymatic activity (HTRF); details: EGFR Del19-C797S, 1 mM ATP, 1 h, room temperature, read-out: IC50 (nM) @Del19-C797S
T1 construct: purchased signalchem
Outline: (§1)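 Following 1 h at room temperature with titrated compound, 1 mM ATP and 1 μM biotin-TK peptide (Mg2+/Mn2+, CHAPS, DTT, 0.5% DMSO buffer), EDTA-containing detection reagent terminated each enzyme reaction. Time-resolved fluorescence (ex 320, em 665/615 nm) ratio tracked activity. IC50 values came from four-parameter fits.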

[3] = target: T2, EGFR L858R (Homo sapiens, UniProt P00533, L858R); test: Inhibition of EGFR L858R biochemical enzymatic activity (HTRF); details: 1 mM ATP, 1 h, room temperature, read-out: IC50 (nM) @L858R
T2 construct: purchased Carna Bio
T2 sequence (P00533 25-1210 L858R): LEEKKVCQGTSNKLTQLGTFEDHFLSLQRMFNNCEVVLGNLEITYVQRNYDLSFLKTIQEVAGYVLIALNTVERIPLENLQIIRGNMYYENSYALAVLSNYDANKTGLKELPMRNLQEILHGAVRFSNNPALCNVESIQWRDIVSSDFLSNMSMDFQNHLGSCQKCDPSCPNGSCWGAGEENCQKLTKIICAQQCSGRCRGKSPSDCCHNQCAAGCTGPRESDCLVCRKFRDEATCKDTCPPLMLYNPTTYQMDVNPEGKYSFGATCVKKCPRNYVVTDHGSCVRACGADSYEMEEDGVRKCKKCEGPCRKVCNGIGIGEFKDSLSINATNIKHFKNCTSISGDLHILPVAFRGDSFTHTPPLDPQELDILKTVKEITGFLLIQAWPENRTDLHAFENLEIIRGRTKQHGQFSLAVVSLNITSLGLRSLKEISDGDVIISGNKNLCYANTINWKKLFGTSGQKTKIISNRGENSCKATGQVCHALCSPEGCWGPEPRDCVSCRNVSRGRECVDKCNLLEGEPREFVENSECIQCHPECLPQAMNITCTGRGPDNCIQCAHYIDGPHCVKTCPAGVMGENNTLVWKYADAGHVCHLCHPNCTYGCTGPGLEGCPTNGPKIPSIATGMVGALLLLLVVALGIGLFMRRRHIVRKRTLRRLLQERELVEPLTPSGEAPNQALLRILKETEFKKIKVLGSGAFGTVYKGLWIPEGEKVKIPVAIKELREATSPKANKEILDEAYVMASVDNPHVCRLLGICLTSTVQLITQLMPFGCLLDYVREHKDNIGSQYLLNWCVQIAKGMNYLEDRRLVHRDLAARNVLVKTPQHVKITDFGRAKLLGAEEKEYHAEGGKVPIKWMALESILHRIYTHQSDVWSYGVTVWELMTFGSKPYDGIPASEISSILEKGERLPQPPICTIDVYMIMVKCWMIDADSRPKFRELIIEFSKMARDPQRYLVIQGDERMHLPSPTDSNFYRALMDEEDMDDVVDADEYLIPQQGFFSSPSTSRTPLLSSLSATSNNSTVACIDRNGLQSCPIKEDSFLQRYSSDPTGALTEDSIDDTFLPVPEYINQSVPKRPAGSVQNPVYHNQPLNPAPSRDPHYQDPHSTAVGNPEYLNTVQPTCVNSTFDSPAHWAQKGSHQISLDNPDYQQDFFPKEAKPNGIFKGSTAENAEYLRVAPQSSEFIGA
Outline: as §1

[4] = target: T3, EGFR (C797S L858R) (Homo sapiens, UniProt P00533, C797S/L858R); test: Inhibition of EGFR (C797S L858R) biochemical enzymatic activity (HTRF); details: EGFR L858-C797S, 1 mM ATP, 1 h, room temperature, read-out: IC50 (nM) @L858-C797S
T3 construct: purchased signalchem
Outline: as §1

[5] = target: T4, EGFR Exon19Del (Homo sapiens, UniProt P00533, DEL746-750); test: Inhibition of EGFR Exon19Del biochemical enzymatic activity (HTRF); details: EGFR Del19, 1 mM ATP, 1 h, room temperature, read-out: IC50 @Del19
T4 construct: purchased Carna Bio
T4 sequence (P00533 with tags, fused parts or gaps DEL746-750 limits assumed): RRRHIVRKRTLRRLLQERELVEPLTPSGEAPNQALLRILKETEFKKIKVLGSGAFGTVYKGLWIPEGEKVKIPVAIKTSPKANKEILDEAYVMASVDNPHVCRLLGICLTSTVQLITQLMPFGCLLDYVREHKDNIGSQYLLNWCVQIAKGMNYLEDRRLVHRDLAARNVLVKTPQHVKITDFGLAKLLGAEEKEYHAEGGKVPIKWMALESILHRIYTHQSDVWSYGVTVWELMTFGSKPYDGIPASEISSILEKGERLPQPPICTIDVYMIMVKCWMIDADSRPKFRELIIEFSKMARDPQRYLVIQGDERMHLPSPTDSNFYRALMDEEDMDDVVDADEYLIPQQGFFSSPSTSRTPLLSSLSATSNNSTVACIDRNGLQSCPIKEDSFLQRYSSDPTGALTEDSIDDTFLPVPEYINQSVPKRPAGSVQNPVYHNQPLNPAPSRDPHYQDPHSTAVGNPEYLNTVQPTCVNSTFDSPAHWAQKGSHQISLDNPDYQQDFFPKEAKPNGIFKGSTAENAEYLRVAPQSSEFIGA
Outline: as §1

[6] = target: T5, EGFR Exon19Del/T790M (Homo sapiens, UniProt P00533, DEL746-750/T790M); test: Inhibition of EGFR Exon19Del/T790M biochemical enzymatic activity (HTRF); details: EGFR Del19-T790M, 1 mM ATP, 1 h, room temperature, read-out: IC50 (nM) @Del19-T790M
T5 construct: purchased Carna Bio
T5 sequence (P00533 with tags, fused parts or gaps DEL746-750/T790M limits assumed): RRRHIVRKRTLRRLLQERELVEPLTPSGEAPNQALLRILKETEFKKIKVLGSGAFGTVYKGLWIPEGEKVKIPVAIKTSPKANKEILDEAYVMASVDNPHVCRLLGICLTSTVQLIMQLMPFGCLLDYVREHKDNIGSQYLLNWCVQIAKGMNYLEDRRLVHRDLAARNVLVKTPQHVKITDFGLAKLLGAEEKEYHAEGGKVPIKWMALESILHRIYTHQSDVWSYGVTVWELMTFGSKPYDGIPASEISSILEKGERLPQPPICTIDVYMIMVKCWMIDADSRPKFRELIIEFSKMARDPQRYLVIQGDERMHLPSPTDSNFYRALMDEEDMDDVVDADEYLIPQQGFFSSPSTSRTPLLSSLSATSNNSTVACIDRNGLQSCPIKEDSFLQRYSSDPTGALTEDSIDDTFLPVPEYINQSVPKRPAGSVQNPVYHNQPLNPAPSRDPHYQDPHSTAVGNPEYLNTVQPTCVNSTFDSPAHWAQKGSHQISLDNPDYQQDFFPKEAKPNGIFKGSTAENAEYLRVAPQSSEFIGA
Outline: as §1

[7] = target: T6, EGFR L858R/T790M (Homo sapiens, UniProt P00533, L858R/T790M); test: Inhibition of EGFR L858R/T790M biochemical enzymatic activity (HTRF); details: EGFR L858R-T790M, 1 mM ATP, 1 h, room temperature, read-out: IC50 (nM) @L858R-T790M
T6 construct: purchased Carna Bio
T6 sequence (P00533 25-1210 T790M/L858R): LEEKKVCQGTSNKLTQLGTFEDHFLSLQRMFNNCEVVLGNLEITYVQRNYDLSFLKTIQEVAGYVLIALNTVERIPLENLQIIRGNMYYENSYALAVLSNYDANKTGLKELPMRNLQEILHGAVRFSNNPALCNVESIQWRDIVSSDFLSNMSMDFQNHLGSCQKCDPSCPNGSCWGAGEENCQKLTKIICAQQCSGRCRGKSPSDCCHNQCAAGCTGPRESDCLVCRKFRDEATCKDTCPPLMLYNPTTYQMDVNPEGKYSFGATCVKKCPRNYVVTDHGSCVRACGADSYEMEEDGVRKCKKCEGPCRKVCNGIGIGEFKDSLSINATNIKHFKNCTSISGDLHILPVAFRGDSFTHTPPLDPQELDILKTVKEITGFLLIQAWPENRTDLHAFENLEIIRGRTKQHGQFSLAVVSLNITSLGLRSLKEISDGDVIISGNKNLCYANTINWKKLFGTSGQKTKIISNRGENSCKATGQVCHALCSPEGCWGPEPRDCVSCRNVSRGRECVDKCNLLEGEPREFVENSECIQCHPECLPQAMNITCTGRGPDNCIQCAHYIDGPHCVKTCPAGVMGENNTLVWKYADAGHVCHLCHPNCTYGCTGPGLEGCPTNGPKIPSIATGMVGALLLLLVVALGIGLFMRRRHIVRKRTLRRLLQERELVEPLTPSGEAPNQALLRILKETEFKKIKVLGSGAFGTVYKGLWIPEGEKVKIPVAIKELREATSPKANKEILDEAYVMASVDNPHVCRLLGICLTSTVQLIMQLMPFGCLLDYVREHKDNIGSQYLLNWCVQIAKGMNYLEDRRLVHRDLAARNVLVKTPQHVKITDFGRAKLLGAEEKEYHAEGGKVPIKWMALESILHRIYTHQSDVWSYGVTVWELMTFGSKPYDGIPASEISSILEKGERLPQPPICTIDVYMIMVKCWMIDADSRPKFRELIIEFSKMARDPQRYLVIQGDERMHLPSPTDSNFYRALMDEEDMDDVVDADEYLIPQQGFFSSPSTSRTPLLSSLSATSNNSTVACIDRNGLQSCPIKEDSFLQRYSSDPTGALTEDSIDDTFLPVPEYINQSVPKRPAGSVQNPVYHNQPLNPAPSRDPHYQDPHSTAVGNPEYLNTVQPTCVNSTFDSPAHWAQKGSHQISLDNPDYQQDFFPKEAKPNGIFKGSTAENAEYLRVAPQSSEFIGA
Outline: as §1

[8] = target: T7, EGFR wild type (Homo sapiens, UniProt P00533); test: Inhibition of EGFR wild type biochemical enzymatic activity (HTRF); details: EGFR WT, 1 mM ATP, 1 h, room temperature, read-out: IC50 (nM) @WT
T7 construct: purchased Carna Bio
T7 sequence (P00533 25-1210): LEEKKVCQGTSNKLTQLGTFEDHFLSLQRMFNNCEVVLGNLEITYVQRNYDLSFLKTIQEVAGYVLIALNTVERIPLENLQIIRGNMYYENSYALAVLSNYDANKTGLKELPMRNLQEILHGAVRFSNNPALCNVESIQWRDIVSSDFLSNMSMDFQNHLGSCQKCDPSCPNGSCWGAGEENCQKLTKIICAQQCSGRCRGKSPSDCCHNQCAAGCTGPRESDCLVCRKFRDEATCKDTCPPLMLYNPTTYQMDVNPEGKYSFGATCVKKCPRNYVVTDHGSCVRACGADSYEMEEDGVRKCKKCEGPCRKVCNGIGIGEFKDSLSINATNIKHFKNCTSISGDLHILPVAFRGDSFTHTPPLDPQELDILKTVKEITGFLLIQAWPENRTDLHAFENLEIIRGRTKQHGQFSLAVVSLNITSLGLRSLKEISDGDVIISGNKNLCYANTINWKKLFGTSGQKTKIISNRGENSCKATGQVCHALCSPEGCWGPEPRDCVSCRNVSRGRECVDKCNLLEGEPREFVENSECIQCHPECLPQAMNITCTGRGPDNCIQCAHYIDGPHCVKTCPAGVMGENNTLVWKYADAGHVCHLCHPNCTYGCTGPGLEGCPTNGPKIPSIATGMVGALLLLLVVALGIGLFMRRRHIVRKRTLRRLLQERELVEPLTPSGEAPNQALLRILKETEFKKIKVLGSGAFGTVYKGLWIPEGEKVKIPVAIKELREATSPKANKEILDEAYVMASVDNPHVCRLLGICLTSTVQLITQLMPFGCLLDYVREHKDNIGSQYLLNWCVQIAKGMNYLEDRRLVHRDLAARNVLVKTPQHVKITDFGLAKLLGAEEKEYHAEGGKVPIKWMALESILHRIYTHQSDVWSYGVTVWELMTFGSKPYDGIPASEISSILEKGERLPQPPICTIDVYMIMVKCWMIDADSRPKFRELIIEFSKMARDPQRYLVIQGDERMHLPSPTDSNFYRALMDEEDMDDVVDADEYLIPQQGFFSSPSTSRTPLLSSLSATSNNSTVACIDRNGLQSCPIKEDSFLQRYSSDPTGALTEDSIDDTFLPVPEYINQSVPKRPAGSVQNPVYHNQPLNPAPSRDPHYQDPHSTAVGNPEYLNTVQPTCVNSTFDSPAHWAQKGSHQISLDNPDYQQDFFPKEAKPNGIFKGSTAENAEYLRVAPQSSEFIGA
Outline: as §1

[9] = target: T8, EGFR[T790M/C797S/d746-750] (Homo sapiens, UniProt P00533, C797S/DEL746-750/T790M); test: Inhibition of EGFR[T790M/C797S/d746-750] biochemical enzymatic activity (HTRF); details: EGFR T790M-C797S-Del19, 1 mM ATP, 1 h, room temperature, read-out: IC50 (nM) @T790M - C797S - Del19
T8 construct: purchased Carna Bio
Outline: as §1

[10] = system: Ba/F3 cells expressing EGFR mutations; test: Cell proliferation assay, Ba/F3 cells expressing EGFR mutations (CellTiter-Glo, 72 hours); format: cell-based; details: CellTiter-Glo
Outline: (§2)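 Luminescent viable-cell counts were taken on a day 0 plate at dosing and again at endpoint. Proliferation was calculated as (sample − G0)/(DMSO − G0). Seeding was 5000 Ba/F3 or 500 PC-9 cells per well in RPMI1640, followed by overnight attachment and serial compound dilutions. The GI50 was fitted.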

[11] = target: T9, EGFR[T790M/C797S/L858R] (Homo sapiens, UniProt P00533, C797S/L858R/T790M); test: Inhibition of EGFR[T790M/C797S/L858R] biochemical enzymatic activity (HTRF); details: EGFR T790M-C797S-L858R, 1 mM ATP, 1 h, room temperature, read-out: IC50 (nM) @T790M- C797S - L858R
T9 construct: purchased Carna Bio
Outline: as §1

[12] = system: PC-9; test: Cell proliferation assay, PC-9 cells (CellTiter-Glo, 72 hours); format: cell-based; details: PC9 cells, CellTiter-Glo, read-out: PC9 GI50
Outline: as §2

[13] = BaF3 cells, EGFR DEL19-C797S, read-out: DEL19-C797S/BaF3 GI50
[14] = BaF3 cells, EGFR DEL19-T790-C797S, read-out: DEL19-T790-C797S/BaF3 GI50
[15] = BaF3 cells, EGFR L858R, read-out: L858R/BaF3 GI50
[16] = BaF3 cells, EGFR L858R-C797S, read-out: L858R-C797S/BaF3 GI50
[17] = BaF3 cells, EGFR L858R-T790-C797S, read-out: L858R-T790-C797S/BaF3 GI50
[18] = BaF3 cells, EGFR L858R-T790M, read-out: L858R-T790M/BaF3 GI50
[19] = EGFR DEL19-T790M, read-out: DEL19-T790M GI50
[20] = Homo sapiens, A-431, A-431 cells

| SMILES | GI50 ([1]; A-431 cells) [nM] | IC50 [2] [nM] | IC50 [3] [nM] | IC50 [4] [nM] | IC50 [5] [nM] | IC50 [6] [nM] | IC50 [7] [nM] | IC50 [8] [nM] | IC50 [9] [nM] | GI50 [10, 13] [nM] | GI50 [10, 14] [nM] | GI50 [10, 15] [nM] | GI50 [10, 16] [nM] | GI50 [10, 17] [nM] | GI50 [10, 18] [nM] | GI50 [10, 19] [nM] | IC50 [11] [nM] | GI50 [12] [nM] | GI50 [1, 20] [nM] | further results |
| --- | --- | --- | --- | --- | --- | --- | --- | --- | --- | --- | --- | --- | --- | --- | --- | --- | --- | --- | --- | --- |
| CN(C)C1CN(c2ccc3nc4n(c3c2)C23CCC(CN(CCOc5c(cnn5C)-c5cc(cn(C)c5=O)C(=O)N4)C2)C3)CC1F (single isomer, unassigned) [Example A84D, 15,21-Dimethyl-5-[4-fluoro-3-(N,N-dimethylamino)pyrrolidinyl]-23-oxa-2,9,11,15,20,21,26-heptaazaheptacyclo[24.4.1.1^{1,28}.1^{13,17}.0^{2,10}.0^{3,8}.0^{18,22}]tritriaconta-3,5,7,9,13,17(33),18(22),19-octaene-12,16-dione] | 1770 | 2.4 | 21 | 9.8 | 3.1 | 3.9 | 4.6 | 196 | 3.3 | 0.77 | 13 | 14 | 16 | 31 | 40 | 14 | 4.4 | 29 |  |  |
| CN1CCOC2(C1)CN(c1ccc3nc4n(c3c1)C13CCC(CN(CCOc5c(cnn5C)-c5cc(cn(C)c5=O)C(=O)N4)C1)C3)C2 (single isomer, unassigned) [Example A86B] |  | 3.9 | 16 | 14 | 4 | 9.5 | 12 | 110 | 8.5 | 0.71 | 1.9 | 2.4 | 5.2 | 4.2 | 10 | 1.2 | 8.1 | 26 | 2670 |  |
| Cn1ncc2c1OCCN1CC3CCC(C3)(C1)n1c(nc3ccc(N4CCC(N5CC(F)C5)CC4)cc31)NC(=O)c1cc-2c(=O)n(C)c1 (single isomer, unassigned) [Example A87A] | 382 | 995 | 4480 | > 5000 | 842 | > 5000 | > 5000 | > 5000 | 4000 | 61 | 238 | 178 | 124 | 233 | 311 | 192 | > 5000 | 452 |  |  |
| CN1CC2CC1CN2c1ccc2nc3n(c2c1)C12CCC(CN(CCOc4c(cnn4C)-c4cc(cn(C)c4=O)C(=O)N3)C1)C2 (single isomer, unassigned) [Example A105B] |  | 1 | 7.3 | 3.8 | 1.6 | 2.2 | 1.8 | 110 | 1.7 | 0.76 | 3.5 | 7.9 | 3.8 | 7 | 15 | 4.9 | 1.5 | 13 | 354 |  |
| Cn1ncc2c1OCCN1CCCCC(C)(C1)n1c(nc3ccc(N4CCOCC4)cc31)NC(=O)c1cc-2c(=O)n(C)c1 (stereo not drawn) [Example A13, 1,15,21-Trimethyl-5-(morpholin-4-yl)-23-oxa-2,9,11,15,20,21,26heptaazahexacyclo[24.4.1.1^{13,17}.0^{2,10}.0^{3,8}.0^{18,22}]dotriac onta-3,5,7,9,13,17(32),18(22),19-octaene-12,16-dione] |  | 780 | > 5000 | > 5000 | 932 | 757 | > 5000 | > 5000 | 728 |  |  |  |  |  |  |  | > 5000 |  | 357 | GI50 ([10]; Mus musculus, BaF3, 72 h, BaF3 cells, EGFR DEL19-C797S, read-out: DEL19-C797S/BaF3 GI50): 148 nM; GI50 ([10]; Mus musculus, BaF3, 72 h, BaF3 cells, EGFR DEL19-T790-C797S, read-out: DEL19-T790-C797S/BaF3 GI50): 192 nM; GI50 ([10]; Mus musculus, BaF3, 72 h, BaF3 cells, EGFR L858R, read-out: L858R/BaF3 GI50): 234 nM; GI50 ([10]; Mus musculus, BaF3, 72 h, BaF3 cells, EGFR L858R-C797S, read-out: L858R-C797S/BaF3 GI50): 232 nM; GI50 ([10]; Mus musculus, BaF3, 72 h, BaF3 cells, EGFR L858R-T790-C797S, read-out: L858R-T790-C797S/BaF3 GI50): 280 nM; GI50 ([10]; Mus musculus, BaF3, 72 h, BaF3 cells, EGFR L858R-T790M, read-out: L858R-T790M/BaF3 GI50): 411 nM; GI50 ([10]; Mus musculus, BaF3, 72 h, EGFR DEL19-T790M, read-out: DEL19-T790M GI50): 192 nM; GI50 ([12]; Homo sapiens, PC-9, 72 h): 292 nM |
| CN(C)[C@H]1CCN(c2ccc3nc4n(c3c2)C23CCC(CN(CCOc5c(cnn5C)-c5cc(cn(C)c5=O)C(=O)N4)C2)C3)C1 (single isomer, unassigned) [Example A66B] |  | 1.7 | 7.9 | 8.1 | 1.9 | 2.8 | 2.6 | 62 | 2.9 | 0.67 | 2.1 | 2.4 | 3.6 | 2.2 | 11 | 1.9 | 3.2 | 6.1 | 815 |  |

Source: US20260365670A1, “EGFR INHIBITORS AND USES THEREOF” (DIZAL (JIANGSU) PHARMACEUTICAL CO., LTD., priority 2022, published 2026)
